{
  "source": "paper PMC3705412",
  "about": "“PTP1B Inhibitory and Anti-Inflammatory Effects of Secondary Metabolites Isolated from the Marine-Derived Fungus Penicillium sp. JF-55” (Marine Drugs, 2013)",
  "type_in_all_cases": "cell-based, murine (C57BL/6 mice)",
  "key": {"[1]": {"system": "TNF-α production in murine peritoneal macrophages", "test": "TNF-α production in LPS-stimulated macrophages, ELISA", "conditions": "Mus musculus, Peritoneal macrophage; pre-treated 12 h, LPS 1 μg/mL 18 h", "description": "C57BL/6 mice were purchased from Orient Bio Co. (Sungnam, Kyung-Kido, Korea). TG-elicited peritoneal macrophages were harvested four days after intraperitoneal (i.p.) injection of 3 mL of TG [37]. Peritoneal lavage was performed using 8 mL of Hanks’ Balanced Salt Solution containing 10 U/mL heparin. The cells were distributed in Roswell Park Memorial Institute medium (RPMI) supplemented with 10% heat-inactivated FBS, in 6-well tissue culture plates (5 × 10^6 cells/mL). The level of PGE2, TNF-α or IL-1β present in each sample was determined using a commercially available kit from R & D Systems. The assay was performed according to the manufacturer’s instructions. Briefly, murine peritoneal macrophages were cultured in 24-well plates, pre-incubated for 12 h with different concentrations of compounds 1–3, and then stimulated for 18 h with LPS. The cell culture supernatants were then immediately collected after treatment and centrifuged at 13,000× g for 2 min to remove particulate matter. The medium was added to a 96-well plate pre-coated with affinity-purified PGE2-specific polyclonal antibodies or the medium was added to a 96-well plate pre-coated with affinity-purified polyclonal antibodies that were specific to mouse TNF-α or IL-1β. An enzyme-linked polyclonal antibody specific for PGE2, mouse TNF-α or IL-1β was added to the wells for 20 h, followed by a final wash to remove any unbound antibody-enzyme reagent. A substrate solution was added, and the intensity of the color produced, which was measured at 450 nm (the correction wavelength was set at 540 nm or 570 nm), was proportional to the amount of PGE2, TNF-α or IL-1β present."}, "NF-κB": {"system": "NF-κB", "test": "DNA-binding activity of NF-κB in nuclear extracts (TransAM kit)", "conditions": "pre-treatment 12 h, LPS 1 μg/mL 1 h", "description": "Figure 5 The effects of penstyrylpyrone (1) on the protein expression level of IκB-α phosphorylation, degradation of IκB-α (A), NF-κB translocation (B), and NF-κB DNA binding activity (C) in murine peritoneal macrophages. Murine peritoneal macrophages were pre-treated for 12 h at the indicated concentrations of penstyrylpyrone (1), and stimulated for 1 h with LPS (1 μg/mL). Western blotting analysis of IκB-α and p-IκB-α in the cytoplasm and NF-κB in the nucleus (A, B) were performed. A commercially available NF-κB ELISA (Active Motif) was used to test the nuclear extracts and to determine the degree of NF-κB binding (C). The data represent the mean values ± SD of three experiments. *p < 0.05 compared with the group treated with LPS.\nC57BL/6 mice were purchased from Orient Bio Co. (Sungnam, Kyung-Kido, Korea). […]\nMurine peritoneal macrophages were homogenized (1:20, w:v) in PER-Mammalian Protein Extraction buffer (Pierce Biotechnology, Rockford, IL, USA) containing freshly added protease inhibitor cocktail I (EMD Biosciences, San Diego, CA, USA) and 1 mM phenylmethylsulfonyl fluoride (PMSF). […] The protein concentration was determined using the bicinchoninic acid (BCA) protein assay kit.\nThe DNA-binding activity of NF-κB in the nuclear extracts was measured using the TransAM kit (Active Motif, Carlsbad, CA, USA) according to the manufacturer’s instructions."}, "HO-1": {"system": "HO-1", "test": "Western blotting of HO-1 protein expression in macrophages", "description": "Figure 6 The effects of penstyrylpyrone (1) on the protein expression of HO-1 in murine peritoneal macrophages. Murine peritoneal macrophages were incubated for 12 h with the indicated concentrations of penstyrylpyrone (1). […] Representative blots of three independent experiments are shown. The data represent the mean ± SD of three experiments. * p < 0.05 compared with the control group.\nC57BL/6 mice were purchased from Orient Bio Co. (Sungnam, Kyung-Kido, Korea). TG-elicited peritoneal macrophages were harvested four days after intraperitoneal (i.p.) injection of 3 mL of TG [37]. Peritoneal lavage was performed using 8 mL of Hanks’ Balanced Salt Solution containing 10 U/mL heparin. The cells were distributed in Roswell Park Memorial Institute medium (RPMI) supplemented with 10% heat-inactivated FBS, in 6-well tissue culture plates (5 × 10^6 cells/mL).\nWestern blotting analysis was performed by lysing the cells in 20 mM Tris-HCl buffer (pH 7.4) containing a protease inhibitor mixture (0.1 mM PMSF, 5 mg/mL aprotinin, 5 mg/mL pepstatin A, and 1 mg/mL chymostatin). The protein concentration was determined using a Lowry protein assay kit (P5626; Sigma Chemical Co., St. Louis, MO, USA). An equal amount of protein for each sample was resolved using 12% sodium dodecyl sulfate-polyacrylamide gel electrophoresis (SDS-PAGE) and then electrophoretically transferred onto a Hybond enhanced chemiluminescence (ECL) nitrocellulose membrane (Bio-Rad, Hercules, CA, USA). The membrane was blocked with 5% skimmed milk and sequentially incubated with primary antibody (Santa Cruz Biotechnology, Santa Cruz, CA, USA) and horseradish peroxidase-conjugated secondary antibody followed by ECL detection (Amersham Pharmacia Biotech, Piscataway, NJ, USA)."}},
  "data": [
    {"compound": "COc1cc(/C=C/c2ccccc2)oc(=O)c1C", "note": "[Penstyrylpyrone (1), penstyrylpyrone]", "values": [
      {"measurement": "IC50", "setting": "[1]", "result": 18.3, "unit": "µM"},
      {"measurement": "NF-κB DNA-binding activity", "setting": "NF-κB", "result": "impaired this activity in a concentration-dependent manner"},
      {"measurement": "Time at which HO-1 protein expression began to increase", "setting": "HO-1; 40 μM", "result": 6, "unit": "h"},
      {"measurement": "Time of maximum level of HO-1 protein expression", "setting": "HO-1; 40 μM", "result": 18, "unit": "h"},
      {"measurement": "HO-1 protein expression", "setting": "HO-1; 5–40 μM for 12 h", "result": "concentration-dependent increase"},
      {"measurement": "Concentration giving a considerable increase in HO-1 expression", "setting": "HO-1; 12 h", "result": "above 10 μM"}
    ]}
  ]
}
